# Test results published in a flash point compilation (Sun et al. 2020).
row,flash point [°C],SMILES
1,46.00,"CC(C)(C)CC(C)(C)S [2,4,4-trimethylpentane-2-thiol]"
2,96.00,OCCc1ccccc1 [2-phenylethanol]
3,113.00,"CCN(CC)C(=O)c1cccnc1 [N,N-diethylpyridine-3-carboxamide]"
4,96.00,O=[N+]([O-])c1ccccc1C(F)(F)F [1-nitro-2-(trifluoromethyl)benzene]
5,180.00,"O=C(Cl)c1ccc(C(=O)Cl)cc1 [benzene-1,4-dicarbonyl chloride]"
6,88.00,O=Cc1ccc(Cl)cc1 [4-chlorobenzaldehyde]
7,163.00,CC(C)Nc1nc(Cl)nc(NC2CC2)n1
8,184.00,Cc1ccc(S(=O)(=O)O)cc1 [4-methylbenzenesulfonic acid]
9,36.00,Cc1ccccn1 [2-methylpyridine]
10,96.00,Cc1ccc(C(C)(C)O)cc1 [2-(4-methylphenyl)propan-2-ol]
11,25.00,CC(=O)OCCC(C)C [3-methylbutyl acetate]
12,9.00,C[Si](C)(C)N[Si](C)(C)C [[dimethyl-(trimethylsilylamino)silyl]methane]
13,174.00,CC(=O)Nc1ccccc1 [N-phenylacetamide]
14,-18.00,C[Si](C)(C)Cl [chloro(trimethyl)silane]
15,66.00,"CC12CCC(CC1=O)C2(C)C (configuration not stated) [1,7,7-trimethylbicyclo[2.2.1]heptan-2-one]"
16,28.00,CC(C)OB(OC(C)C)OC(C)C [tripropan-2-yl borate]
17,143.00,O=[N+]([O-])c1ccc(-c2ccccc2)cc1 [1-nitro-4-phenylbenzene]

row,flash point [°C],SMILES
1,207.00,"CC(C)CCCCCOC(=O)C(C)Oc1cc(Cl)c(Cl)cc1Cl (configuration not stated) [6-methylheptyl 2-(2,4,5-trichlorophenoxy)propanoate]"
2,202.00,O=C(O)c1ccc([N+](=O)[O-])cc1 [4-nitrobenzoic acid]
3,61.00,"CC(=O)OC1CC(C)OC(C)O1 (configuration not stated) [(2,6-dimethyl-1,3-dioxan-4-yl) acetate]"
4,86.00,Cc1ccc(O)cc1 [4-methylphenol]
5,113.00,COc1cc(CNC(=O)CCCC/C=C/C(C)C)ccc1O
6,54.00,C=C(C)c1ccccc1 [prop-1-en-2-ylbenzene]
7,127.00,"Cc1cc(C(C)(C)C)c(O)c(C(C)(C)C)c1 [2,6-ditert-butyl-4-methylphenol]"
8,74.00,Nc1ccc(F)cc1 [4-fluoroaniline]
9,47.00,FC(F)(F)c1cccc(Cl)c1 [1-chloro-3-(trifluoromethyl)benzene]
10,170.00,"N=C(N)N(c1ccccc1)c1ccccc1 [1,1-diphenylguanidine]"
11,86.00,Cc1cccc(O)c1 [3-methylphenol]
12,121.00,CC(C)C(=O)OCC(C)(C)C(OC(=O)C(C)C)C(C)C (configuration not stated)
13,77.00,COC(C)CCOC(C)=O (configuration not stated) [3-methoxybutyl acetate]
14,127.00,CCCCC(CC)C(=O)O (configuration not stated) [2-ethylhexanoic acid]
15,122.00,CC(C)c1ccc2ccccc2c1 [2-propan-2-ylnaphthalene]
16,148.00,O=C(OCc1ccccc1)c1ccccc1 [benzyl benzoate]

# The next lines start with the compound.
row,SMILES,flash point [°C]
1,CCCCOC(C)=O [butyl acetate],22.00
2,"Nc1ccc(N)cc1 [benzene-1,4-diamine]",155.00
3,CCCCCCCCCCCCCCCCCC(=O)[O-].CCCCCCCCCCCCCCCCCC(=O)[O-].[Zn+2] [zinc;octadecanoate],277.00
4,CC1CC(=O)O1 (configuration not stated) [4-methyloxetan-2-one],60.00
5,"Clc1cccc(Cl)c1Cl [1,2,3-trichlorobenzene]",112.00
6,C=CCCCCCC [oct-1-ene],21.00
7,CCCCCCCCCCCCCCCCCCOC(=O)CCCCCCCCCCCCCCC [octadecyl hexadecanoate],238.00
8,C1CCSC1 [thiolane],13.00
9,"O=C(O)C(O)C(O)C(=O)O (configuration not stated) [2,3-dihydroxybutanedioic acid]",210.00
10,C=CCc1ccc(OC)cc1 [1-methoxy-4-prop-2-enylbenzene],81.00
11,C[N+](=O)[O-] [nitromethane],35.00
12,"CN1CSC(=S)N(C)C1 [3,5-dimethyl-1,3,5-thiadiazinane-2-thione]",93.00
13,CCOCCOC(C)=O [2-ethoxyethyl acetate],57.00
14,CC(CCl)OC(C)CCl (configuration not stated) [1-chloro-2-(1-chloropropan-2-yloxy)propane],85.00
15,"CCCCC(CC)COC(=O)c1ccc(C(=O)OCC(CC)CCCC)cc1 (configuration not stated) [bis(2-ethylhexyl) benzene-1,4-dicarboxylate]",238.00
16,"CCCCOC(=O)c1ccccc1C(=O)OCCCC [dibutyl benzene-1,2-dicarboxylate]",157.00
17,C=CC(=O)OCCCC [butyl prop-2-enoate],49.00
18,"OCC(CO)(CO)CO [2,2-bis(hydroxymethyl)propane-1,3-diol]",240.00
19,ClC=Cc1ccccc1 [2-chloroethenylbenzene],58.00
20,"c1ccc(-c2cccc(-c3ccccc3)c2)cc1 [1,3-diphenylbenzene]",191.00
21,C#CCOS(=O)OC1CCCCC1Oc1ccc(C(C)(C)C)cc1 (configuration not stated) [[2-(4-tert-butylphenoxy)cyclohexyl] prop-2-ynyl sulfite],28.00
22,CCSC(=O)Cl [S-ethyl chloromethanethioate],31.00

row,SMILES,flash point [°C]
1,"Clc1ccc(Cl)c(Cl)c1 [1,2,4-trichlorobenzene]",110.00
2,"NCCCNCCCN [N'-(3-aminopropyl)propane-1,3-diamine]",79.00
3,C=C(C)C(=O)OCCC [propyl 2-methylprop-2-enoate],30.00
4,C=CCl [chloroethene],-79.00
5,CCCCNC [N-methylbutan-1-amine],13.00
6,CN(C)P(=O)(N(C)C)N(C)C [N-[bis(dimethylamino)phosphoryl]-N-methylmethanamine],106.00
7,CCOCC.FB(F)F [ethoxyethane;trifluoroborane],64.00
8,CCCCCCCC(=O)O [octanoic acid],110.00
9,Nc1ccccc1[N+](=O)[O-] [2-nitroaniline],168.00
10,"Nc1ccc(Cl)cc1Cl [2,4-dichloroaniline]",115.00
11,CC(C)OC(=O)Cc1ccccc1 [propan-2-yl 2-phenylacetate],95.00
12,CC(C)(C)OOC(C)(C)C [2-tert-butylperoxy-2-methylpropane],18.00
13,CNC=O [N-methylformamide],98.00
14,CC(O)CNCC(C)O (configuration not stated) [1-(2-hydroxypropylamino)propan-2-ol],126.00
15,"c1ccc(-c2ccc(-c3ccccc3)cc2)cc1 [1,4-diphenylbenzene]",207.00
16,"OC=CCCO [but-1-ene-1,4-diol]",128.00
17,CCCOCC(C)O (configuration not stated) [1-propoxypropan-2-ol],48.00
18,"ClC(Cl)=C(Cl)C(Cl)=C(Cl)Cl [1,1,2,3,4,4-hexachlorobuta-1,3-diene]",90.00
19,"NCCN [ethane-1,2-diamine]",34.00
20,"CC(C)(C)c1cc(C(C)(C)C)c(O)c(C(C)(C)C)c1 [2,4,6-tritert-butylphenol]",130.00
21,CC(C)CC(C)N (configuration not stated) [4-methylpentan-2-amine],13.00
22,"CN(C)C(=O)Cl [N,N-dimethylcarbamoyl chloride]",68.00

row,SMILES,flash point [°C]
1,CCCCOB(OCCCC)OCCCC [tributyl borate],93.00
2,CC1(C)C2CCC1(C)C(OC(=O)CSC#N)C2 (configuration not stated),82.00
3,"O=c1ccc(=O)[nH][nH]1 [1,2-dihydropyridazine-3,6-dione]",300.00
4,O=C(O)CCCCCCCC(=O)O [nonanedioic acid],210.00
5,COC(C)(C)CCCC(C)C/C=C/C(C)=C/C(=O)OC(C)C (configuration not stated),187.00
6,"CCOC1CCC=CO1 (configuration not stated) [2-ethoxy-3,4-dihydro-2H-pyran]",37.00
7,CCc1cccc(C)c1N [2-ethyl-6-methylaniline],102.00
8,CCCCCCCCCCCCO [dodecan-1-ol],127.00
9,"CC1OC(C)OC(C)OC(C)O1 (configuration not stated) [2,4,6,8-tetramethyl-1,3,5,7-tetraoxocane]",36.00
10,CC(COc1ccc(Oc2ccccc2)cc1)Oc1ccccn1 (configuration not stated) [2-[1-(4-phenoxyphenoxy)propan-2-yloxy]pyridine],119.00
11,"O=C=NCCCCCCN=C=O [1,6-diisocyanatohexane]",140.00
12,Cc1cccc(C#N)c1 [3-methylbenzonitrile],87.00
13,CC1CCC(=O)O1 (configuration not stated) [5-methyloxolan-2-one],81.00
14,O=C1CCCCC1 [cyclohexanone],44.00
15,CCOP(=O)(SC(C)CC)SC(C)CC (configuration not stated) [2-[butan-2-ylsulfanyl(ethoxy)phosphoryl]sulfanylbutane],129.00
16,"C=CC(F)(F)C(F)(F)C(F)(F)C(F)(F)F [3,3,4,4,5,5,6,6,6-nonafluorohex-1-ene]",-17.00
17,OCC1CCCO1 (configuration not stated) [oxolan-2-ylmethanol],75.00
18,CN1CCOCC1 [4-methylmorpholine],24.00
19,"O=C(O)C(Br)Br [2,2-dibromoacetic acid]",113.00
20,O=NN1CCCC1 [1-nitrosopyrrolidine],83.00
